The record followed here is US20250340574A1, “MODULATORS OF CYSTIC FIBROSIS TRANSMEMBRANE CONDUCTANCE REGULATOR” (Vertex Pharmaceuticals Incorporated, priority 2022, published 2025).

Holding throughout (type): cell-based
For test [1], the target named is T1, CFTR (F508del/MF-HBE cells) (Homo sapiens, UniProt P13569, DEL508-508).
T1 construct: human bronchial epithelial (HBE) cells derived from CF subjects heterozygous for F508del and a minimal function CFTR mutation (F508del/MF-HBE); endogenous in cells; host or cells: Primary human bronchial epithelial cells from CF subjects (F508del/MF genotype), differentiated at an air-liquid interface
T1 sequence (P13569 with tags, fused parts or gaps DEL508-508): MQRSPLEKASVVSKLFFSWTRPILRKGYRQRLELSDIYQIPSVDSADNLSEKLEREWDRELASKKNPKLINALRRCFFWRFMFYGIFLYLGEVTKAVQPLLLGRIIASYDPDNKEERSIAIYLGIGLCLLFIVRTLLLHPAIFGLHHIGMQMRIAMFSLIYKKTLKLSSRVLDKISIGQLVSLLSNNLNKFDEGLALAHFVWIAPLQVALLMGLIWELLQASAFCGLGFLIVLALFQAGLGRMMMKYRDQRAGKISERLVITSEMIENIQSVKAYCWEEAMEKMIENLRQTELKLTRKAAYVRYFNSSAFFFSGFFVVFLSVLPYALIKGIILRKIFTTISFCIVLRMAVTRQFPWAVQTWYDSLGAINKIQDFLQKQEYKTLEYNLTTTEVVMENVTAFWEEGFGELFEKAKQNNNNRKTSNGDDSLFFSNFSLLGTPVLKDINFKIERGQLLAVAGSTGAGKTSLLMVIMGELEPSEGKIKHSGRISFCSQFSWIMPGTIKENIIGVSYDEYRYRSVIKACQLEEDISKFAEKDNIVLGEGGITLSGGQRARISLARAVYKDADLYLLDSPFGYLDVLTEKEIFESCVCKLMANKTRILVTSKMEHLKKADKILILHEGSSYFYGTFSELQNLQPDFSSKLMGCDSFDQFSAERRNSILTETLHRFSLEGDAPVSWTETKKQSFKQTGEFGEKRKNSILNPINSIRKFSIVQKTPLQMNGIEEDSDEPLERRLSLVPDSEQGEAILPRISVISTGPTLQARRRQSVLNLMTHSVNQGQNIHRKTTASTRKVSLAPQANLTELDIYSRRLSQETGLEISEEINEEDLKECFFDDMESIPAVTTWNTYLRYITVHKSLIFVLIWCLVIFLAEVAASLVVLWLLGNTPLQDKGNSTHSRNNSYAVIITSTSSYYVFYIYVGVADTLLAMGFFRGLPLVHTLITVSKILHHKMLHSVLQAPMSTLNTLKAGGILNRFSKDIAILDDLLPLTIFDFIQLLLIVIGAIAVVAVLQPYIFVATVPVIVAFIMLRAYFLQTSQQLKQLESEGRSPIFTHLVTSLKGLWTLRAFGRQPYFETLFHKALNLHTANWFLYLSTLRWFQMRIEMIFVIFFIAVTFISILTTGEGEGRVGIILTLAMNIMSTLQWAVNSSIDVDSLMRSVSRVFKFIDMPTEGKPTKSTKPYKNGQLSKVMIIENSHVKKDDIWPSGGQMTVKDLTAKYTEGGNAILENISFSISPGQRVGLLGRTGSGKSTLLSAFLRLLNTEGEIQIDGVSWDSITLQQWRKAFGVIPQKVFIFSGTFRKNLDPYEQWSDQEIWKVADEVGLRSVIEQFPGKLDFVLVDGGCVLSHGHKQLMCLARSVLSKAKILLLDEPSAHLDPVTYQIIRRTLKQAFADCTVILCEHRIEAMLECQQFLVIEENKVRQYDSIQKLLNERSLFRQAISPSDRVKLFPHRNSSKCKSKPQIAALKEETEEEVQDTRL
Kind of test: Ussing chamber assay of CFTR-mediated short-circuit currents, Assay A (0.1 μM to 25 μM, 6 concentrations). The following applies: with 33 nM potentiator and 18 μM Tezacaftor, 20% human serum; for Emax: 18-24 hours, read-out: A Max activity (%). How it is done: Ussing chamber experiments were performed using human bronchial epithelial (HBE) cells derived from CF subjects heterozygous for F508del and a minimal function CFTR mutation (F508del/MF-HBE) and cultured as previously described (Neuberger T, Burton B, Clark H, Van Goor F Methods Mol Biol 2011:741:39-54). After four days the apical media was removed, and the cells were grown at an air liquid interface for >14 days prior to use.
To isolate the CFTR-mediated short-circuit (ISC) current, F508del/MF-HBE grown on Costar® Snapwell™ cell culture inserts were mounted in an Ussing chamber and the transepithelial ISC was measured under voltage-clamp recording conditions (Vhold=0 mV) at 37° C. The basolateral solution contained (in mM) 145 NaCl, 0.83 K2HPO4, 3.3 KH2PO4, 1.2 MgCl2, 1.2 CaCl2, 10 Glucose, 10 HEPES (pH adjusted to 7.4 with NaOH) and the apical solution contained (in mM) 145 NaGluconate, 1.2 MgCl2, 1.2 CaCl2, 10 glucose, 10 HEPES (pH adjusted to 7.4 with NaOH) and 30 μM amiloride to block the epithelial sodium channel. Forskolin (20 μM) was added to the apical surface to activate CFTR, followed by apical addition of a CFTR inhibitor cocktail consisting of BPO, GlyH-101, and CFTR inhibitor 172 (each at 20 μM final assay concentration) to specifically isolate CFTR currents. The CFTR-mediated ISC (μA/cm^2) for each condition was determined from the peak forskolin response to the steady-state current following inhibition.
The activity of the CFTR corrector compounds on the CFTR-mediated ISC was determined in Ussing chamber studies as described above. The F508del/MF-HBE cell cultures were either incubated with the corrector compounds at a range of concentrations in combination with 33 nM (6R,12R)-17-amino-12-methyl-6,15-bis(trifluoromethyl)-13,19-dioxa-3,4,18-triazatricyclo[12.3.1.12,5]nonadeca-1(18),2,4,14,16-pentaen-6-ol and 18 μM Tezacaftor or were incubated with the corrector compounds at a single fixed concentration of 1 μM in combination with 44 nM (6R,12R)-17-amino-12-methyl-6,15-bis(trifluoromethyl)-13,19-dioxa-3,4,18-triazatricyclo[12.3.1.12,5]nonadeca-1(18),2,4,14,16-pentaen-6-ol and 18 μM Tezacaftor for 18-24 hours at 37° C. and in the presence of 20% human serum. The concentration of corrector compounds with 44 nM or 33 nM (6R,12R)-17-amino-12-methyl-6,15-bis(trifluoromethyl)-13,19-dioxa-3,4,18-triazatricyclo[12.3.1.12,5]nonadeca-1(18),2,4,14,16-pentaen-6-ol and 18 μM Tezacaftor during the 18-24 hours incubations was kept constant throughout the Ussing chamber measurement of the CFTR-mediated ISC to ensure compounds were present throughout the entire experiment. The efficacy and potency of the putative F508del correctors was compared to that of the known Vertex corrector, (14S)-8-[3-(2-{Dispiro[2.0.2.1]heptan-7-yl}ethoxy)-1H-pyrazol-1-yl]-12,12-dimethyl-2λ^6-thia-3,9,11,18,23-pentaazatetracyclo[17.3.1.111,14.05,10]tetracosa-1(22),5,7,9,19(23),20-hexaene-2,2,4-trione, in combination with 18 μM Tezacaftor and 1 μM Ivacaftor.
• Assay A: 0.1 μM to 25 μM, 6 concentrations • Assay B: 0.00001 μM to 25 μM, 12 concentrations • Assay C: 0.026 μM to 25 μM, 6 concentrations • Assay D: Activity at single concentration of 1 μM

Test [2] deals with T1, CFTR (F508del/MF-HBE cells). The test can be described thus: Ussing chamber assay of CFTR-mediated short-circuit currents, Assay C (0.026 μM to 25 μM, 6 concentrations). The conditions noted are these: with 33 nM potentiator and 18 μM Tezacaftor, 20% human serum; for Emax: read-out: C Max activity (%). Put shortly: (§1)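 F508del/MF-HBE cells grown at air-liquid interface were incubated 18-24 h at 37 °C in 20% human serum with correctors plus 18 μM tezacaftor and a fixed partner compound (33 nM for concentration series, 44 nM at 1 μM). ISC was read at 0 mV after 20 μM forskolin, minus the post-inhibitor current.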

Test [3] shares this target. Kind of test: Ussing chamber assay of CFTR-mediated short-circuit currents, Assay D (single concentration of 1 μM). The conditions noted are these: with 44 nM potentiator and 18 μM Tezacaftor, 20% human serum; for D activity at 1 μM (%): 18-24 hours. The gist of the method:
as §1

Turning to `Cc1cccc(C)c1-c1cc2nc(n1)NS(=O)(=O)c1cccc(c1)C(=O)N(Cc1cnc3cc(C(C)C)n(C)c3n1)[C@H](C[C@@H]1CCCO1)CO2` (stereo in doubt) [Compound I-16], in test [1], the Emax was above 60% and the EC50 is below 1 µM.

As for `Cc1cccc(C)c1-c1cc2nc(n1)NS(=O)(=O)c1cccc(c1)C(=O)N(Cc1cnc3oc(C4CC4)cc3n1)[C@H](CC1CCCCC1)CO2` [Compound I-42], in test [1], the Emax was above 60% and the EC50 was below 1 µM.

For the compound `Cc1cccc(C)c1-c1nc2nc(c1C)OC[C@@H](C[C@H]1CCCCO1)N(Cc1cnc3cc(C(C)C)n(C)c3n1)C(=O)c1cccc(c1)S(=O)(=O)N2` [Compound I-194], in test [2] (18-24 hours), the Emax was above 60%. In test [2], the EC50 was below 1 µM. Besides, the “D activity at 1 μM (%)” value in test [3] was “+++ (+++ is >60%)”.

For the compound `Cc1cccc(C)c1-c1cc2nc(n1)NS(=O)(=O)c1cccc(c1)C(=O)N(Cc1cnc3cc(C4(C)CC4)n(C)c3n1)[C@@H](C(C1CCC1)C1CCC1)CO2` (single isomer, unassigned) [IV-20, 11-[di(cyclobutyl)methyl]-6-(2,6-dimethylphenyl)-12-[[5-methyl-6-(1-methylcyclopropyl)pyrrolo[2,3-b]pyrazin-3-yl]methyl]-2,2-dioxo-9-oxa-2λ^6-thia-3,5,12,19-tetrazatricyclo[12.3.1.14,8]nonadeca-1(18),4(19),5,7,14,16-hexaen-13-one], in test [2], the EC50 is below 1 µM and the Emax is above 60%. In test [3], the “D act. at 1 μM (%)” value was “+++ (+++ is >60%)”.

On to `Cc1cccc(CC(C)C)c1-c1nc2nc(c1C)OC[C@@H](CC(C)(C)C)N(Cc1ncc3cc(C(C)(C)C)n(C)c3n1)C(=O)c1cccc(c1)S(=O)(=O)N2` (atropisomer, axis not shown) [IV-47], for which, in test [2], the EC50 lay within 1 to 3 µM and the Emax is above 60%. In addition, the “D act. at 1 μM (%)” value in test [3] was “+++ (+++ is >60%)”.

Turning to `COc1c2nc(nc1-c1c(C)cccc1C)NS(=O)(=O)c1cccc(c1)C(=O)N(Cc1cnc3cc(C(C)C)n(C)c3n1)[C@H](CC(C)(C)C)CC2` [Compound I-158], the Emax in test [2] (18-24 hours) was above 60%. The EC50 in test [2] was 1 to 3 µM. In test [3], the “D activity at 1 μM (%)” value is given as “+++ (+++ is >60%)”.

On to `Cc1cccc(C)c1-c1cc2nc(n1)NS(=O)(=O)c1cccc(c1)C(=O)N(Cc1cnc3oc(C(C)(C)CO)cc3n1)[C@H](CC13CC(C1)C3)CO2` [Compound I-113, (11R)-11-(1-bicyclo[1.1.1]pentanylmethyl)-6-(2,6-dimethylphenyl)-12-[[6-(2-hydroxy-1,1-dimethyl-ethyl)furo[2,3-b]pyrazin-2-yl]methyl]-2,2-dioxo-9-oxa-2λ^6-thia-3,5,12,19-tetrazatricyclo[12.3.1.14,8]nonadeca-1(18),4(19),5,7,14,16-hexaen-13-one], for which the Emax in test [2] (18-24 hours) is above 60%. The EC50 in test [2] lay in the range of 3 to 30 µM. In test [3], the “D activity at 1 μM (%)” value is on record as “+++ (+++ is >60%)”.

As to `Cc1cccc(CCC(C)C)c1-c1nc2nc(c1C)OC[C@@H](CC(C)(C)C)N(Cc1cnc3oc(C4CC4)cc3n1)C(=O)c1cccc(c1)S(=O)(=O)N2` (atropisomer, axis not shown) [Compound I-204], the Emax in test [2] (18-24 hours) is above 60%. Moreover, the EC50 in test [2] was below 1 µM. The “D activity at 1 μM (%)” value in test [3] is listed as “+++ (+++ is >60%)”.

Regarding `Cc1cccc(C)c1-c1cc2nc(n1)NS(=O)(=O)c1cccc(c1)C(=O)N(Cc1cnc3cc(C4(C)CC4)n(C)c3n1)[C@H](COC(C)C)CO2` [Compound I-240], in test [2] (18-24 hours), the Emax is above 60%. The EC50 in test [2] was below 1 µM. Besides, the “D activity at 1 μM (%)” value in test [3] was “+++ (+++ is >60%)”.

As for `CCC(C)(C)C[C@H]1COc2cc(-c3c(C)cccc3C)nc(n2)NS(=O)(=O)c2cccc(c2)C(=O)N1Cc1cnc2oc(C(C)(C)C)cc2n1` [IV-37], in test [2], the EC50 lay within 1 to 3 µM and the Emax was above 60%. Also, the “D act. at 1 μM (%)” value in test [3] is given as “+++ (+++ is >60%)”.

With `Cc1cccc(C)c1-c1cc2nc(n1)NS(=O)(=O)c1cccc(c1)C(=O)N(Cc1cnc3oc(C)c(C4CC4)c3n1)[C@H](CC13CC(C1)C3)CO2` [Compound I-86], the Emax in test [2] (18-24 hours) was above 60%. For the same compound, the EC50 in test [2] lay in the range of 1 to 3 µM. The “D activity at 1 μM (%)” value in test [3] is “+++ (+++ is >60%)”.

`Cc1cccc(C)c1-c1cc2nc(n1)NS(=O)(=O)c1cccc(c1)C(=O)N(Cc1cnc3oc(CC(C)C)cc3n1)[C@H](CC1(C)CC1)CO2` [IV-24, (11R)-6-(2,6-dimethylphenyl)-12-[(6-isobutylfuro[2,3-b]pyrazin-2-yl)methyl]-11-[(1-methylcyclopropyl)methyl]-2,2-dioxo-9-oxa-2λ^6-thia-3,5,12,19-tetrazatricyclo[12.3.1.14,8]nonadeca-1(18),4(19),5,7,14,16-hexaen-13-one]: in test [2], the EC50 fell in the range of 3 to 30 µM and the Emax was above 60%. Besides, the “D act. at 1 μM (%)” value in test [3] is on record as “+++ (+++ is >60%)”.

As for `Cc1cccc(C)c1-c1cc2nc(n1)NS(=O)(=O)c1cccc(c1)C(=O)N(Cc1cnc3oc(C(C)(C)C)cc3n1)[C@@H](C(C(C)C)C(C)C)CO2` [IV-36], in test [2], the EC50 is below 1 µM and the Emax was above 60%. In test [3], the “D act. at 1 μM (%)” value was “+++ (+++ is >60%)”.

For the compound `Cc1cccc(C)c1-c1cc2nc(n1)NS(=O)(=O)c1cccc(c1)C(=O)N(Cc1cnc3oc(COC(C)C)cc3n1)[C@H](CC1(C)CC1)CO2` [IV-18], in test [2], the EC50 was in the range of 1 to 3 µM and the Emax is above 60%. In test [3], the “D act. at 1 μM (%)” value is reported as “+++ (+++ is >60%)”.

Turning to `Cc1cccc(C)c1-c1nc2nc(c1C)OC[C@@H](CC13CC(C1)C3)N(Cc1cnc3cc(C4(C)CC4)n(C)c3n1)C(=O)c1cccc(c1)S(=O)(=O)N2` [Compound I-228], the Emax in test [2] (18-24 hours) is above 60%. In addition, the EC50 in test [2] was below 1 µM. Also, in test [3], the “D activity at 1 μM (%)” value is “+++ (+++ is >60%)”.

As to `Cc1cccc(C)c1-c1nc2nc(c1C)OC[C@@H](COC(C)C)N(Cc1cnc3cc(C4(C)CC4)n(C)c3n1)C(=O)c1cccc(c1)S(=O)(=O)N2` [IV-2], in test [2], the EC50 is below 1 µM and the Emax was above 60%. Moreover, the “D act. at 1 μM (%)” value in test [3] is recorded as “+++ (+++ is >60%)”.

As to `Cc1cccc(C(C)C)c1-c1nc2nc(c1C)OC[C@@H](CC(C)(C)C)N(Cc1cnc3oc(C4(C)CC4)cc3n1)C(=O)c1cccc(c1)S(=O)(=O)N2` (atropisomer, axis not shown) [Compound I-213], in test [2] (18-24 hours), the Emax was above 60%. Moreover, the EC50 in test [2] is below 1 µM. Besides, the “D activity at 1 μM (%)” value in test [3] is recorded as “+++ (+++ is >60%)”.

For the compound `Cc1cccc(C)c1-c1cc2nc(n1)NS(=O)(=O)c1cccc(c1)C(=O)N(Cc1cnc3oc(C(C)(C)C)cc3n1)[C@H](CC1(C)CCC1)CO2` [IV-5], in test [2], the EC50 lay in the range of 1 to 3 µM and the Emax is above 60%. In addition, the “D act. at 1 μM (%)” value in test [3] is listed as “+++ (+++ is >60%)”.

By EC50 is commonly meant the concentration at which the effect is half-maximal.
